The test system of assay [1] is primary cortical neuron cells. Put plainly: Toxicity of human Aβ1-42 peptide on primary cortical neuron cells (MAP2 antibody labelling). Conditions: combinations versus drugs used alone at the same doses. Format: cell-based, rat. How it is done:
Effect on the Toxicity of Human Aβ1-42 Peptide on Primary Cortical Neuron Cells.
Culture of Primary Cortical Neurons
Rat cortical neurons are cultured as described by Singer et al.. Briefly pregnant female rats of 15 days gestation were killed by cervical dislocation (Rats Wistar) and the foetuses were removed from the uterus. The cortex was removed and placed in ice-cold medium of Leibovitz (L15) containing 2% of Penicillin 10.000 U/ml and Streptomycin 10 mg/ml and 1% of bovine serum albumin (BSA). Cortices were dissociated by trypsin for 20 min at 37° C. (0.05%). The reaction was stopped by the addition of Dulbecco's modified Eagle's medium (DMEM) containing DNase 1 grade II and 10% of fetal calf serum (FCS). Cells were then mechanically dissociated by 3 serial passages through a 10 ml pipette and centrifuged at 515×g for […] at +4° C. The supernatant was discarded and the pellet of cells was re-suspended in a defined culture medium consisting of Neurobasal supplemented with B27 (2%), L-glutamine (0.2 mM), 2% of PS solution and 10 ng/ml of BDNF. Viable cells are counted in a Neubauer cytometer using the trypan blue exclusion test. The cells are seeded at a density of 30 000 cells/well in 96 well-plates (wells were pre-coated with poly-L-lysine (10 μg/ml)) and are cultured at +37° C. in a humidified air (95%)/CO2 (5%) atmosphere.
Three independent cultures are performed per condition, 6 wells per condition.
Test compounds and Human Amyloid-β1-42 Treatment
Briefly, Aβ1-42 peptide is reconstituted in define culture medium at 40 μM (mother solution) and was slowly shaken at +37° C. for 3 days in dark. The control medium is prepared in the same conditions.
After 3 days, the solution is used on primary cortical neurons as follows.
After 10 days of neuron culture, test compounds and combinations thereof are solved in culture medium (+0.1% DMSO) and then pre-incubated with neurons for one hour before the Aβ1_42 application (in a final volume per culture well of 100 μl). One hour after test compound(s) incubation, 100 μl of Aβ1-42 peptide is added to a final concentration of 10 μM diluted in presence of drug(s), in order to avoid further test compound(s) dilutions. Cortical neurons are intoxicated for 24 h. Three separate cultures are performed per condition, 6 wells per condition.
BDNF (50 ng/ml) is used as positive control. Three separate cultures are performed per condition, 12 wells per condition.
MAP2 Antibody Labelling Assay
24 hours after intoxication, the cell culture supernatant is taken off and the cortical neurons are fixed by a cold solution of ethanol (95%) and acetic acid (5%) for 5 min at −20° C. After permeabilization with 0.1% of saponin, cells are incubated for 2 h with mouse monoclonal antibody anti microtubule-associated-protein 2 (MAP-2; Sigma) at dilution of 1/400 in PBS containing 1% fetal calf serum and 0.1% of saponin (this antibody stains specifically cell bodies and neurites, allowing study of both the neurite network and cell death). […] For each condition, 30 pictures per well are taken using InCell Analyzer™ 1000 (GE Healthcare) with 20× magnification. All images are taken with the same conditions. Analysis of total neurite network and number of neurons is performed automatically by using Developer software (GE Healthcare).
Data are expressed in percentage of control conditions (no intoxication, no amyloid=100%) in order to express the amyloid injury. All values are expressed as mean+/−SEM (s.e.mean) of the 3 cultures (n=6 wells per condition). Statistical analyses are done on the different conditions (one-way ANOVA followed by the Dunnett's test when it is allowed, Statview software version 5.0).

In assay [2] the test system is Male Swiss mice. In words: Spontaneous alternation in the Y-maze (spatial working memory) in mice injected ICV with Aβ25-35. Format: in vivo, mouse. As to conditions: oral gavage Day 0 to Day 10, quinoline 1 mg/Kg once a day, baclofen 480 μg/Kg and acamprosate 32 μg/Kg twice a day, test at Day 8. The method, then:
(§1) The peptide amyloid-β25-35 (Aβ25-35) is the hydrophobic part of the full-length amyloid peptide. Injection of this peptide in the brain ventricles of rodents is known to induce a progressive neurodegenerative processes resulting in cognitive impairments. This model is commonly used for diseases involving cognitive impairment symptoms.
(§2) Male Swiss mice were administered from Day 0 to Day 10 with sham product (group 1 and 2); 3-phenylsulfonyl-8-(piperazin-1-yl) quinoline (group 3); baclofen and acamprosate (group 4); or 3-phenylsulfonyl-8-(piperazin-1-yl) quinoline, baclofen and acamprosate (group 5).
(§3) 3-phenylsulfonyl-8-(piperazin-1-yl) quinoline) was administered orally by gavage once a day (1 mg/Kg of the individual body weight of each mouse.
(§4) A composition of baclofen and acamprosate was administered orally by gavage twice a day (respectively 480 μg/Kg and 32 μg/Kg of the individual body weight of each mouse).
(§5) At Day 1, oligomeric Aβ25-35 peptide was injected ICV (intracerebroventricular) to provoke amyloid toxicity (group 2, 3, 4 and 5). […]
Animals were tested for spontaneous alternation performance in the Y-maze, an index of spatial working memory. […] The number of maximum alternations was therefore the total number of arm entries minus two and the percentage of alternation was calculated as (actual alternations/maximum alternations)×100. […]

Assay [3] concerns Male Swiss mice. Put plainly: Step-through passive avoidance test (contextual long-term memory) in mice injected ICV with Aβ25-35. The assay is classed as in vivo, mouse. Conditions: oral gavage Day 0 to Day 10, quinoline 1 mg/Kg once a day, baclofen 480 μg/Kg and acamprosate 32 μg/Kg twice a day, retention at Day 10. The method, then: as §1, §2, §3, §4, §5
All animals were tested for passive avoidance performance, an index of contextual long-term memory. […] The step-through latency, that is, the latency spent to enter the darkened compartment, and the number of vocalizations were recorded. […] The step-through latency was recorded up to 300 s.

Turning to `O=S(=O)(c1ccccc1)c1cnc2c(N3CCNCC3)cccc2c1` [3-phenylsulfonyl-8-(piperazin-1-yl) quinoline], in assay [1], the “protective effect on neuronal cells against Aβ1-42 toxicity” value (“protective effect on neuronal cells” below) is “no or a marginal protective effect”. For the same compound, the “effect on the impairment of cognitive function induced by Aβ(25-35), Y-maze” value with Male Swiss mice [2] is recorded as “did not show any significant effect”. Besides, in the assay with Male Swiss mice [3], the “effect on the impairment of cognitive function induced by Aβ(25-35), step-through passive avoidance” value was “did not show any significant effect”.
In the case of `CC(=O)NCCCS(=O)(=O)O` [acamprosate], in assay [1], the “protective effect on neuronal cells” value is recorded as “no or a marginal protective effect”.
In the case of `NCC(CC(=O)O)c1ccc(Cl)cc1` (centres unmarked) [baclofen], in assay [1], the “protective effect on neuronal cells” value is listed as “no or a marginal protective effect”.
The same measure, in the same setting: as for `CC12CC3CC(C)(C1)CC(N)(C3)C2` [memantine], the entry is “no or a marginal protective effect”.
Same read-out and setting: to `CCN(C)C(=O)Oc1cccc([C@H](C)N(C)C)c1` [rivastigmine] belongs “no or a marginal protective effect”; to `Nc1c2c(nc3ccccc13)CCCC2` [tacrine], “no or a marginal protective effect”.

(Values after patent US10799499B2, “Combinatorial therapies of neurological disorders” (PHARNEXT, priority 2016, dated 2020).)
